Nine compounds from US10213416B2, “Substituted benzoxazolone derivatives as acid ceramidase inhibitors, and their use as medicaments” (FONDAZIONE ISTITUTO ITALIANO DI TECNOLOGIA, priority 2014, dated 2019) can be followed below.

Entries after “also recorded” stand apart in the source; their conditions may differ.

The subject of experiment [1] is levels of MAGs in brain, liver, fat and heart. Description: Levels of monoacylglycerols (MAG) in mouse tissues after systemic administration. Format: in vivo. As to conditions: mice, 10 mg-kg-1 intraperitoneal, 3 hours after injection. How it is done: (§1) Specifically, the compound of Example 1 was tested for its ability to inhibit the hydrolytic degradation of diacylglycerols (DAG) and monoacylglycerols (MAG) in live mice. DAG and MAG hydrolysis is catalyzed by multiple serine lipases, including diacylglycerol lipase (DGL), monoacylglycerol lipase (MGL), hormone-sensitive lipase (HSL), and endothelial lipase. Thus, by monitoring the effects of compound of Example 1 on MAG-hydrolysing activity as well as DAG and MAG levels ex vivo, we gain important information as to the ability of the compound to interfere with those lipases in a physiologically relevant setting.
Specifically, FIG. 1 evidences the effect of Example 1 or vehicle (DMSO) on MGL activity in brain, liver, fat and heart. MAG-hydrolysing activity was measured 3 h after intraperitoneal injection of compound of Example 1 (10 mg-kg-1). Results are expressed as mean±s.e.m. (n=5). […] The levels of MAGs were quantified after 3 hours after intraperitoneal injection of compound of Example 1 (10 mg-kg-1). Specifically, levels of 16:0 MAG, 18:0 MAG, 18:1 MAG, 22:4 MAG, 22:6 MAG were measured in the brain (a); levels of 16:0 MAG, 18:0 MAG, 18:1 MAG, 22:4 MAG were measured in the liver (b), in fat (c) and in the heart (d). Results are expressed as mean±s.e.m. (n=5). […]

The target of experiment [2] is human (hAC) acid ceramidase (Homo sapiens (Human), UniProt Q13510). Description: Fluorescent-based in vitro assay of acid ceramidase inhibition. Format: biochemical. The note with it: human acid ceramidase-enriched lysosomal lysate from HEK293 cells, fluorogenic probe 5 μM, pH 4.5. An excerpt:
To evaluate the potency of the compounds towards acid ceramidase, a fluorescence-based in vitro assay previously described in literature (Bedia C et al., ChemBioChem, 2007, 8, 642-648) was implemented and optimized. This assay is based on a “fluorogenic probe” containing a coumarin group and a sphingoid base moiety (see figure below), which is not fluorescent in itself, but upon enzymatic cleavage by acid ceramidase followed by a chemical transformation liberates the fluorescent molecule umbelliferone (7-hydroxychromen-2-one). By quantifying the generation of umbelliferone using a fluorescence plate-reader, the level of enzymatic activity can be measured, whereby IC50 values of compounds that inhibit this activity can be generated.
Lysosomal lysate, enriched with acid ceramidase, was prepared from a cell line stably expressing human acid ceramidase. In the assay, the fluorogenic probe (or substrate) serves as a ceramide-analogue, which is recognized and hydrolyzed at the amide bond by acid ceramidase from the enriched lysate to yield the fatty acid and coumarinic aminodiol.
A lysosomal human acid ceramidase protein preparation was obtained from HEK293 cells stably expressing acid ceramidase suspended in 20 mM Tris HCl (pH 7.5) with 0.32 M sucrose. The cell solution was sonicated and centrifuged at 800×g for 15 min at 4° C. Supernatants were then centrifuged at 12,000×g for 30 min at 4° C. Pellets were re-suspended in phosphate-buffered saline (PBS) pH 7.4 and subjected to two freeze-thaw cycles at −80° C. The suspension was finally centrifuged at 105,000×g for 1 h at 4° C. and protein concentration was measured in the supernatant with bicinchinonic-acid based protein assay.
The assay was performed in Optiplate 96-wells black plates, with each reaction well containing a mixture of 25 mM sodium acetate buffer pH 4.5 and a fixed amount of protein (2 μg) in a volume of 85 μL. After 30 min of pre-incubation with test compounds (diluted 20× from DMSO stock solutions at different concentrations), the fluorogenic probe was added (diluted 20× from EtOH stock solution, final concentration 5 μM). After incubation for 3 h at 37° C., the reactions were stopped with 50 μl of methanol and 100 μl of a 2.5 mg/mL NaIO4 fresh solution in 100 mM Glycine/NaOH pH 10.6. The plate was incubated at 37° C. for 2 h in the dark and fluorescence intensities were measured at excitation/emission wavelengths of 360/446 nm. Negative control samples consisted of the same incubation mixture in the absence of protein extracts. The IC50 values or percent of inhibition, at the indicated concentration, of selected compounds described in the invention are reported in Table 2.

The subject of experiment [3] is MAG-hydrolysing enzymes (monoacylglycerol lipase (MGL), hormone-sensitive lipase (HSL), endothelial lipase). Description: MAG-hydrolysing activity ex vivo in mouse tissues after systemic administration (LC-MS based assay). The note with it: mice, 10 mg-kg-1 intraperitoneal, measured 3 h after injection; brain, liver, fat and heart. On the procedure:
as §1
Specifically, FIG. 1 evidences the effect of Example 1 or vehicle (DMSO) on MGL activity in brain, liver, fat and heart. MAG-hydrolysing activity was measured 3 h after intraperitoneal injection of compound of Example 1 (10 mg-kg-1). Results are expressed as mean±s.e.m. (n=5). […] The levels of MAGs were quantified after 3 hours after intraperitoneal injection of compound of Example 1 (10 mg-kg-1). Specifically, levels of 16:0 MAG, 18:0 MAG, 18:1 MAG, 22:4 MAG, 22:6 MAG were measured in the brain (a); levels of 16:0 MAG, 18:0 MAG, 18:1 MAG, 22:4 MAG were measured in the liver (b), in fat (c) and in the heart (d). Results are expressed as mean±s.e.m. (n=5).
Tissue was homogenized in ice-cold Tris-HCl (50 mM, pH7.5, 10 vol) containing sucrose (0.32 M). […]

Sequence of human (hAC) acid ceramidase (Q13510 143-395): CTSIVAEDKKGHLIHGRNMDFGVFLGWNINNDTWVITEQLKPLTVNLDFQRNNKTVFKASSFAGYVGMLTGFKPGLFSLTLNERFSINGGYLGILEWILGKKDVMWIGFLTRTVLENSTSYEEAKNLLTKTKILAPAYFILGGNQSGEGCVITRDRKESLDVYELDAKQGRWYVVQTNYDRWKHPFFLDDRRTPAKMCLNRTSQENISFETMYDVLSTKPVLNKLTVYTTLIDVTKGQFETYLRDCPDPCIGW
Sequence of human (hAC) acid ceramidase (Q13510 22-142): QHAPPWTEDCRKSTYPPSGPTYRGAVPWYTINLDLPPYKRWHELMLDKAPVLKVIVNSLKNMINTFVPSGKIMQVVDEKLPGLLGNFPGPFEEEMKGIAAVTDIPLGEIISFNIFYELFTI

For orientation: IC50 means the point on the concentration scale where inhibition reaches its midpoint. Read a high IC50 as weaker potency. With `O=C(NCCCCCc1ccccc1)n1c(=O)oc2cc(-c3ccc(F)cc3)ccc21` [Example 1, 6-(4-fluorophenyl)-2-oxo-N-(5-phenylpentyl)-1,3-benzoxazole-3-carboxamide], in experiment [1], the “levels of the most representative MAGs (16:0, 18:0, 18:1, 22:4, 22:6 MAG)” value is given as “lack of effect; also recorded: remained unchanged”. In experiment [2], 75 ± 20 nM corresponded to half-maximal inhibition (IC50). In experiment [3], the “MAG-hydrolysing activity (MGL activity)” value is “lack of effect; also recorded: did not cause inhibition; also recorded: no inhibitory activity”.
Consider `O=C(NCCCCCCc1ccccc1)n1c(=O)oc2ccc(-c3ccc(C(F)(F)F)cc3)cc21` [Example 3, 2-oxo-N-(6-phenylhexyl)-5-[4-(trifluoromethyl)phenyl]-1,3-benzoxazole-3-carboxamide], for which the midpoint of inhibition in experiment [2], the IC50, lay at 111 ± 30 nM.
Same read-out and setting: next, `O=C(NCCCCCCc1ccccc1)n1c(=O)oc2c(-c3ccc(F)cc3)cccc21` [Example 4, 7-(4-fluorophenyl)-2-oxo-N-(6-phenylhexyl)-1,3-benzoxazole-3-carboxamide]: 125 ± 79 nM.
Still for that read-out and setting: the same measure for `COc1ccc(C(=O)c2ccc3c(c2)oc(=O)n3C(=O)NCCCCCc2ccccc2)cc1` [Example 6, 6-(4-methoxybenzoyl)-2-oxo-N-(5-phenylpentyl)-1,3-benzoxazole-3-carboxamide]: 26 ± 3 nM; for `COc1ccc(C(=O)c2ccc3oc(=O)n(C(=O)NCCCCCCc4ccccc4)c3c2)cc1` [Example 8, 5-(4-methoxybenzoyl)-2-oxo-N-(6-phenylhexyl)-1,3-benzoxazole-3-carboxamide]: 46 ± 31 nM.
For the compound `O=C(c1ccc(F)cc1)c1cccc2c1oc(=O)n2C(=O)NCCCCCc1ccccc1` [Example 9, 7-(4-fluorobenzoyl)-2-oxo-N-(5-phenylpentyl)-1,3-benzoxazole-3-carboxamide], the IC50 in experiment [2] is 66 ± 15 nM.
`CCCCOCCCNC(=O)n1c(=O)oc2cc(-c3ccc(F)cc3)ccc21` [Example 13, N-(3-butoxypropyl)-6-(4-fluorophenyl)-2-oxo-1,3-benzoxazole-3-carboxamide] yielded an IC50 in experiment [2] of 132 ± 5 nM.
Still for that read-out and setting: next, `O=C(NCCCCCc1ccccc1)n1c(=O)oc2c(-c3ccc(F)cc3)cc(Cl)cc21` [Example 14, 5-chloro-7-(4-fluorophenyl)-2-oxo-N-(5-phenylpentyl)-1,3-benzoxazole-3-carboxamide]: 37 nM; `O=C(NCCCCSc1ccccc1)n1c(=O)oc2ccc(-c3ccc(F)cc3)cc21` [Example 15, 5-(4-fluorophenyl)-2-oxo-N-(4-phenylsulfanylbutyl)-1,3-benzoxazole-3-carboxamide]: 240 ± 58 nM.
